Measurements as given in US7250399B2, “Compounds having growth hormone releasing activity” (The Administrators of the Tulane Educational Fund, priority 1998, dated 2007).
“And” between values parts separate entries of the source, which are not always exact repeats. Identical values can stand only once.

How the values were obtained:
[1] = system: Growth Hormone release; test: In Vitro Release of Growth Hormone in Rat; assay type: cell-based
Protocol: (§1) In vitro and in vivo activity of certain compounds were determined in rats and adult beagle dogs (in vivo activity only).

[2] = system: Growth Hormone release; test: In Vivo Release of Growth Hormone in Adult Beagle Dogs; design: unit not given here
Protocol: as §1

[3] = system: Growth Hormone release; test: In Vivo GH Release in Rats (i.v., serum GH by RIA); design: species or system Sprague-Dawley rats; conditions: i.v., serum 10 min after injection
Protocol: Immature female Sprague-Dawley rats were obtained from the Charles River Laboratories (Wilmington, Mass.). After arrival they were housed at 25° C. with a 14:10 hour light:dark cycle. Water and Purina rat chow were available ad libitum. Pups were kept with their mothers until 21 days of age.
Twenty-six day old rats, six rats per treatment group, were anesthetized interperitoneally with 50 mg/kg of pentobarbital 20 minutes prior to i.v. treatment with peptide. Normal saline with 0.1% gelatin was the vehicle for intravenous (i.v.) injections of the peptides. The anesthetized rats, weighing 55-65 grams, were injected i.v. with the quantity of grown hormone releasing compounds indicated in Table 3. Injection was made as a 0.1 mL solution into the jugular vein.
All animals were sacrificed by guillotine 10 minutes after final test injection (see Table 3). Trunk blood for the determination of blood GH levels was collected following decapitation. After allowing the blood to clot, it was centrifuged and the serum was separated from the clot. Serum was kept frozen until the day of sampling for radioimmunoassay (RIA) determination of growth hormone levels according to the following procedure, as developed by the National Institute of Arthritis, Diabetes and Digestive and Kidney Diseases (NIADDK).
Reagents are generally added to the RIA analysis tubes at a single sitting, at refrigerator temperature (about 4° C.) in the following sequence: • (a) buffer, • (b) “cold” (i.e., non-radioactive) standard or unknown serum sample to be analyzed, • (c) radio-iodinated growth hormone antigen, and • (d) growth hormone antiserum.
Reagent addition is generally carried out so that there is achieved a final RIA tube dilution of about 1:30,000 (antiserum to total liquid volume; vol:vol).
The mixed reagents are then typically incubated at room temperature (about 25° C.) for about 24 hours prior to addition of a second antibody (e.g., goat or rabbit anti-monkey gamma globulin serum) which binds to and causes precipitation of the complexed growth hormone antiserum. Precipitated contents of the RIA tubes are then analyzed for the number of counts in a specified period of time in a gamma scintillation counter. A standard curve is prepared by plotting number of radioactive counts versus growth hormone (GH) level. GH levels of unknown are then determined by reference to the standard curve.
Serum GH was measured by RIA with reagents provided by the National Hormone and Pituitary Program.
Serum levels in Tables 3 and 4 are recorded in ng/mL in terms of the rat GH standard of 0.61 International Units/mg (IU/mg). Data is recorded as the mean ±standard error of the mean (SEM). Statistical analysis was performed with Student's t-test. In Table 3, the results shown are the average of studies with six rats.

[4] = compound at .0001 (dose unit not given)
[5] = compound at .0003 (dose unit not given)
[6] = compound at .001 (dose unit not given)
[7] = compound at .003 (dose unit not given)
[8] = compound at .01 (dose unit not given)
[9] = oral dose 1 mg/kg, time 0.5 hr, 1 mg/kg
[10] = oral dose 1 mg/kg, time 1 hr, 1 mg/kg
[11] = oral dose 1 mg/kg, time 2 hr, 1 mg/kg
[12] = oral dose 1 mg/kg, time 3 hr, 1 mg/kg
[13] = oral dose 4 mg/kg, time 6 hr, 4 mg/kg
[14] = oral dose 4F [sic] (mg/kg; F not explained), time 0 hr
[15] = oral dose 4F [sic] (mg/kg; F not explained), time 2 hr
[16] = oral dose 4F [sic] (mg/kg; F not explained), time 4 hr
[17] = oral dose 4F [sic] (mg/kg; F not explained), time 5 hr
[18] = compound at 3 (dose unit not given)
[19] = compound at 10 (dose unit not given)
[20] = compound at 30 (dose unit not given)
[21] = compound at 100 (dose unit not given)
[22] = compound at .03 (dose unit not given)
[23] = compound at .1 (dose unit not given)
[24] = compound at .3 (dose unit not given)
[25] = compound at 1 (dose unit not given)

Compound | In Vitro Release of Growth Hormone in Rat, GH [1, 4] [ng/mL] | In Vitro Release of Growth Hormone in Rat, GH [1, 5] [ng/mL] | In Vitro Release of Growth Hormone in Rat, GH [1, 6] [ng/mL] | In Vitro Release of Growth Hormone in Rat, GH [1, 7] [ng/mL] | In Vitro Release of Growth Hormone in Rat, GH [1, 8] [ng/mL] | In Vivo Release of Growth Hormone in Adult Beagle Dogs [2, 9] | In Vivo Release of Growth Hormone in Adult Beagle Dogs [2, 10] | In Vivo Release of Growth Hormone in Adult Beagle Dogs [2, 11] | In Vivo Release of Growth Hormone in Adult Beagle Dogs [2, 12] | In Vivo Release of Growth Hormone in Adult Beagle Dogs ([2]; oral dose 2 mg/kg, time 0.5 hr) | In Vivo Release of Growth Hormone in Adult Beagle Dogs ([2]; oral dose 2 mg/kg, time 1 hr) | In Vivo Release of Growth Hormone in Adult Beagle Dogs ([2]; oral dose 2 mg/kg, time 2 hr) | In Vivo Release of Growth Hormone in Adult Beagle Dogs ([2]; oral dose 2 mg/kg, time 3 hr) | In Vivo Release of Growth Hormone in Adult Beagle Dogs ([2]; oral dose 2 mg/kg, time 4 hr) | In Vivo Release of Growth Hormone in Adult Beagle Dogs ([2]; oral dose 2 mg/kg, time 6 hr) | In Vivo Release of Growth Hormone in Adult Beagle Dogs [2, 13] | In Vivo Release of Growth Hormone in Adult Beagle Dogs [2, 14] | In Vivo Release of Growth Hormone in Rat, GH [3, 18] [ng/mL] | In Vivo Release of Growth Hormone in Rat, GH [3, 19] [ng/mL] | In Vivo Release of Growth Hormone in Rat, GH [3, 20] [ng/mL] | also measured
Aib-DTrp-DPro-3-methylpiperidinamide [DPro-m-methylpiperidine] | 434 | 458 | 633 | 837 | 968 | 53 and 63 | 19 and 32 | 15 and 17 | 9.6 and 13 | 128 | 59 | 29 | 12 | 8.9 | 3 | 11 | 1.4 | 832 | 1557 | 1570 | In Vivo Release of Growth Hormone in Adult Beagle Dogs ([2]; oral dose 1 mg/kg, time 0 hr, 1 mg/kg): 2; In Vivo Release of Growth Hormone in Adult Beagle Dogs ([2]; oral dose 1 mg/kg, time 5 hr, 1 mg/kg): 2.2 and 1.5; In Vivo Release of Growth Hormone in Adult Beagle Dogs ([2]; oral dose 1 mg/kg, time 7 hr, 1 mg/kg): 2.2 and 3; In Vivo Release of Growth Hormone in Adult Beagle Dogs ([2]; oral dose 1 mg/kg, time 8 hr, 1 mg/kg): 1; In Vivo Release of Growth Hormone in Adult Beagle Dogs ([2]; oral dose 2 mg/kg, time 7 hr): 3; In Vivo Release of Growth Hormone in Adult Beagle Dogs ([2]; oral dose 4 mg/kg, time 1 hr): 55; In Vivo Release of Growth Hormone in Adult Beagle Dogs ([2]; oral dose 4 mg/kg, time 2 hr, 4 mg/kg): 50 and 54; In Vivo Release of Growth Hormone in Adult Beagle Dogs ([2]; oral dose 4 mg/kg, time 3 hr, 4 mg/kg): 52 and 53; In Vivo Release of Growth Hormone in Adult Beagle Dogs ([2]; oral dose 4 mg/kg, time 4 hr, 4 mg/kg): 20 and 34; In Vivo Release of Growth Hormone in Adult Beagle Dogs ([2]; oral dose 4 mg/kg, time 7 hr, 4 mg/kg): 11; In Vivo Release of Growth Hormone in Adult Beagle Dogs ([2]; oral dose 4F [sic] (mg/kg; F not explained), time 0.5 hr): 72; In Vivo Release of Growth Hormone in Adult Beagle Dogs ([2]; oral dose 4F [sic] (mg/kg; F not explained), time 1 hr): 84; In Vivo Release of Growth Hormone in Adult Beagle Dogs [2, 15]: 18; In Vivo Release of Growth Hormone in Adult Beagle Dogs ([2]; oral dose 4F [sic] (mg/kg; F not explained), time 3 hr): 4.7; In Vivo Release of Growth Hormone in Adult Beagle Dogs [2, 16]: 3.5; In Vivo Release of Growth Hormone in Adult Beagle Dogs [2, 17]: 1.4; In Vivo Release of Growth Hormone in Rat, GH [3, 21]: 1762 ng/mL
N-2-hydroxylethyl-Aib-DTrp-DPro-diisobutylamide [R^1 = -N-2-OHethyl/DPro-diisobutylamide] | – | – | 452 | 326 | 526 | 102 and 62 | 26 and 30 | 25 and 19 | 10 | – | – | – | – | – | – | – | – | 156 | 259 | 451 | In Vitro Release of Growth Hormone in Rat, GH [1, 22]: 820 ng/mL; In Vitro Release of Growth Hormone in Rat, GH [1, 23]: 1163 ng/mL; In Vitro Release of Growth Hormone in Rat, GH [1, 24]: 1217 ng/mL; In Vivo Release of Growth Hormone in Adult Beagle Dogs ([2]; oral dose 1 mg/kg, time 4 hr, 1 mg/kg): 6.1 and 3.8; In Vivo Release of Growth Hormone in Adult Beagle Dogs ([2]; oral dose 1 mg/kg, time 6 hr, 1 mg/kg): 4.0 and 2.5
Aib-DTrp-DPro-diisobutylamide | – | – | – | – | 1322 | – | – | – | – | 54 | 30 | 22 | 15 | 7 | 4.8 | – | – | 1524 | 1837 | 2307 | In Vitro Release of Growth Hormone in Rat, GH [1, 25]: 1124 ng/mL; In Vitro Release of Growth Hormone in Rat, GH [1, 22]: 1529 ng/mL; In Vitro Release of Growth Hormone in Rat, GH [1, 23]: 1427 ng/mL; In Vitro Release of Growth Hormone in Rat, GH [1, 24]: 1155 ng/mL; In Vivo Release of Growth Hormone in Adult Beagle Dogs ([2]; oral dose 1 mg/kg, time 0.5 hr, listed as DPo-diisobutylamide, 1 mg/kg): 85 and 128 and 89; In Vivo Release of Growth Hormone in Adult Beagle Dogs ([2]; oral dose 1 mg/kg, time 1 hr, listed as DPo-diisobutylamide, 1 mg/kg): 30 and 50 and 59; In Vivo Release of Growth Hormone in Adult Beagle Dogs ([2]; oral dose 1 mg/kg, time 2 hr, listed as DPo-diisobutylamide, 1 mg/kg): 16 and 24 and 30; In Vivo Release of Growth Hormone in Adult Beagle Dogs ([2]; oral dose 1 mg/kg, time 4 hr, listed as DPo-diisobutylamide, 1 mg/kg): 6 and 5.6 and 7; In Vivo Release of Growth Hormone in Adult Beagle Dogs ([2]; oral dose 1 mg/kg, time 7 hr, listed as DPo-diisobutylamide, 1 mg/kg): 2.5 and 2.2 and 3.7; In Vivo Release of Growth Hormone in Adult Beagle Dogs ([2]; oral dose 2 mg/kg, time 5 hr): 4.6; In Vivo Release of Growth Hormone in Adult Beagle Dogs ([2]; oral dose 2 mg/kg, time 8 hr): 1.8; In Vivo Release of Growth Hormone in Adult Beagle Dogs ([2]; oral dose 4 mg/kg, time 0 hr, listed as DPo-diisobutylamide, 4 mg/kg): 1.4 and 0.8; In Vivo Release of Growth Hormone in Adult Beagle Dogs ([2]; oral dose 4 mg/kg, time 3 hr, listed as DPo-diisobutylamide, 4 mg/kg): 15 and 22; In Vivo Release of Growth Hormone in Adult Beagle Dogs ([2]; oral dose 4 mg/kg, time 7 hr, listed as DPo-diisobutylamide, 4 mg/kg): 6.9; In Vivo Release of Growth Hormone in Rat, GH [3, 25]: 642 ng/mL; In Vivo Release of Growth Hormone in Rat, GH [3, 21]: 2913 ng/mL
CCN(CC)C(=O)C1CCCNC1 (centres unmarked) [N,N-diethylnipecotamide] | 418 | 395 | 489 | 536 | 642 | – | – | – | – | – | – | – | – | – | – | 1.9 and 2.1 | 2.7 | 2070 | 2896 | 2186 | In Vivo Release of Growth Hormone in Adult Beagle Dogs ([2]; oral dose 4 mg/kg, time 0 hr, 4 mg/kg): 1.7 and 0.9; In Vivo Release of Growth Hormone in Adult Beagle Dogs ([2]; oral dose 4 mg/kg, time 0.5 hr, 4 mg/kg): 57 and 43; In Vivo Release of Growth Hormone in Adult Beagle Dogs ([2]; oral dose 4 mg/kg, time 1 hr, 4 mg/kg): 13 and 8; In Vivo Release of Growth Hormone in Adult Beagle Dogs ([2]; oral dose 4 mg/kg, time 8 hr, 4 mg/kg): 1.7 and 0.9; In Vivo Release of Growth Hormone in Adult Beagle Dogs [2, 15]: 3.7; In Vivo Release of Growth Hormone in Adult Beagle Dogs [2, 16]: 0.9; In Vivo Release of Growth Hormone in Adult Beagle Dogs [2, 17]: 10; In Vivo Release of Growth Hormone in Adult Beagle Dogs ([2]; oral dose 4F [sic] (mg/kg; F not explained), time 8 hr): 3.5; In Vivo Release of Growth Hormone in Rat, GH [3, 25]: 928 ng/mL; In Vivo Release of Growth Hormone in Rat, GH [3, 24]: 221 ng/mL
